Laboratory results reported in patent US20160015770A1, “COMPOSITIONS FOR TREATMENT OF RETINAL DETACHMENT” (THE REGENTS OF THE UNIVERSITY OF MICHIGAN, priority 2013, published 2016).
“Also recorded” adds a separate entry of the source.

Key:
caspase 8 = test: Caspase 8 activity luminescent assay in Fas-activated 661W cells; type: cell-based, mouse
Experimental: Caspase 8 activity was measured by a commercially available luminescent cleavage assay kit (Promega, Madison, Wis.). The 661W cells were seeded in 96-well plates at 2,000 cells/well for 24 hours before treatment. Cells were treated with 500 ng/mL Fas-agonistic Jo2 monoclonal antibody and various concentrations of calpeptin or equal volume of DMSO. Caspase 8 activity was measured at 48 hours by incubating the cells with the proluminescent substrate in 96-well plates according to the manufacturer's instructions. Controls included untreated cells and wells with no cells. Luminescence was measured in a plate reader luminometer (Turner Biosystems, Sunnyvale, Calif.).

detached retina = test: Experimental retinal detachment, western blot of autophagy markers (Atg5, Atg5-12, LC3-II) in retina; type: in vivo; settings: rat, 0.2 μg subretinal at time of detachment, 7 days, vs detached retinas alone
Experimental: All experiments were performed in accordance with the ARVO Statement for the Use of Animals in Ophthalmic and Vision Research and the guidelines established by the University Committee on Use and Care of Animals of the University of Michigan. Detachments were created in adult male Brown-Norway rats (300-400 g; Charles River Laboratories, Wilmington, Mass.) as described previously. Briefly, rodents were anesthetized with a 50:50 mix of ketamine/xylazine, and pupils were dilated with topical phenylephrine (2.5%) and tropicamide (1%). A 20-gauge microvitreoretinal blade was used to create a sclerotomy 2 mm posterior to the limbus, carefully avoiding lens damage. A subretinal injector (Glaser, 32-gauge tip; BD Ophthalmic Systems, Franklin Lakes, N.J.) was introduced through the sclerotomy into the vitreous cavity and then through a peripheral retinotomy into the subretinal space. Sodium hyaluronate (10 mg/mL, Healon OVD; Abbott Medical Optics, Uppsala, Sweden) was slowly injected to detach the neurosensory retina from the underlying RPE. In all experiments, approximately one third to one half of the neurosensory retina was detached. Detachments were created in the left eye. The right eye served as the control, with all the steps of the procedure performed except for introduction of the subretinal injector and injection of the sodium hyaluronate. […]
Retinas from experimental eyes with detachment (detached portion of retina only) and control eyes without detachment were dissected from the RPE-choroid, homogenized, and lysed in buffer containing 10 mM HEPES (pH 7.6), 0.5% IgEPal, 42 mM KCl, 1 mM phenylmethylsulfonyl fluoride, 1 mM EDTA, 1 mM EGTA, 1 mM dithiothreitol, 5 mM MgCl2, and one tablet of protease inhibitors per 10 mL buffer (Complete Mini; Roche Diagnostics GmbH, Madison, Wis.). […] The protein concentration of the supernatant was then determined (DC Protein Assay kit; Bio-Rad Laboratories, Hercules, Calif.). The protein samples were separated on SDS-polyacrylamide gels (Tris-HCl Ready Gels; Bio-Rad Laboratories). […]

**Q.** Which “caspase 8 activity” value (caspase 8; 661W cells not treated with Fas activating antibody, calpeptin alone) does the source give for `CCCC[C@@H](C=O)NC(=O)[C@H](CC(C)C)NC(=O)OCc1ccccc1` [calpeptin] here?
**A.** Its value is “no effect”.

**Q.** And the “caspase 8 activity” value (caspase 8; 661W cells, Fas activating antibody 48 hours, 1 μM)?
**A.** Its value is “little effect”.

**Q.** What about the “caspase 8 activity” value (caspase 8; 661W cells, Fas activating antibody 48 hours, 10 uM) of the same molecule?
**A.** The value was “returned caspase 8 activity to baseline levels; also recorded: significantly reduced its activity back to baseline”.

**Q.** And the “caspase 8 activity” value (caspase 8; 661W cells, Fas activating antibody 48 hours, 25 uM)?
**A.** Its value is “returned caspase 8 activity to baseline levels; also recorded: significantly reduced its activity back to baseline”.

**Q.** What about the “Atg5 level in retina” value (detached retina) of the same molecule?
**A.** Its value is “increase in Atg5; also recorded: significantly more Atg5”.
